Test results: patent publication US20210024483A1, “HETEROCYLCOALKENYL DERIVATIVES USEFUL AS AGONISTS OF THE GPR120 AND / OR GPR40” (Janssen Pharmaceutica NV, priority 2018, published 2021)

Molecular target: T1, Human GPR120 short form (short splice variant, NM_001195755.1) (Homo sapiens, UniProt Q5NUL3)
T1 construct: expressed in transfected cells; host or cells: HEK293
T1 sequence (Q5NUL3 1-361): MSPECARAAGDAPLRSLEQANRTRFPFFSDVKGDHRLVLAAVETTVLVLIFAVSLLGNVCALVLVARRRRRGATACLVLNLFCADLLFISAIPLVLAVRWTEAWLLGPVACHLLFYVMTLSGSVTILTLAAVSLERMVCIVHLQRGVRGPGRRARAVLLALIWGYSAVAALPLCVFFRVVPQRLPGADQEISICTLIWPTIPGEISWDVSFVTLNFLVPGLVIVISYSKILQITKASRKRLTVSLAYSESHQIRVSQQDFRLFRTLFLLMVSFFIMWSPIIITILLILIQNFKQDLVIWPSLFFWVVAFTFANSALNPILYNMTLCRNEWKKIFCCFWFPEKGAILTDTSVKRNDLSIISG
Assay: Human GPR120 Calcium Flux Assay
Assay type: cell-based
Details: HEK-293 cells, 4200 cells/well, read-out: Human GPR120 Calcium Flux Assay Procedure B EC50
Method in brief: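 HEK293 cells stably expressing human GPR120 short form were starved 1 h and loaded with Fluo-4 NW dye with probenecid. Compound-induced calcium flux was read on FLIPR for 300 s, with the response taken as max minus min RFU. EC50 came from sigmoidal variable-slope fits.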

## Cc1c(CCC(=O)O)ccc(OCC2=C(c3ccc(Cl)cc3)COCC2)c1C [ID No. 745, 3-[4-[[5-(4-chlorophenyl)-3,6-dihydro-2H-pyran-4-yl]methoxy]-2,3-dimethyl-phenyl]propanoic acid]
  EC50: 110 nM
